The target of assay [1] is MALT1-GS-Ub (6-His-hMALT-1 residues 339-715 fused to ubiquitin) (Homo sapiens (Human), UniProt Q9UDY8). Put plainly: MALT1 Protease Assay 1 (Assay 1), cleavage of fluorogenic tetrapeptide substrate. In kind it is biochemical. The conditions noted are these: MALT1-GS-Ub 300-600 nM, Ac-LVSR-AMC 100 μM, 30 min preincubation, 60 min read. How it is done:
MALT1 Protease Assay 1 (Assay 1)
MALT1 protease activity was assessed in vitro by measuring the cleavage of a fluorogenic tetrapeptide substrate.
A protein (MALT1-GS-Ub) comprising 6-His-hMALT-1 (residues 339-715), fused to ubiquitin with an 8× GGS linker, was expressed in E. coli, and purified using chitin resin to remove contaminants followed by affinity chromatography purification and size-exclusion chromatography, according to standard protocols.
Briefly, MALT1-GS-Ub (300-600 nM) was incubated with substrate (Ac-LVSR-AMC, 100 μM) in reaction buffer comprising 50 mM HEPES (pH7.0), 25 mM KCl, 0.1% (v/v) CHAPS and 1 mM TCEP.
Test compounds dissolved in DMSO were dispensed into assay plates (384-well, black, shallow ProxiPlates). 7 μl enzyme solution was added and incubated at room temperature for 30 minutes to allow compound binding to occur. 2 μl substrate solution was then added and the fluorescence (excitation 360 nm, emission 460 nm) read every 15 minutes using a suitable plate reader. Final assay DMSO concentration was 1%. Linearity over 60 minutes was confirmed, and assay signal was calculated by subtracting raw counts at time 0 from those at 60 minutes. % inhibition was calculated for each well, using no enzyme for 100% inhibition controls and no compound for 0% inhibition controls. IC50 values were calculated using GraphPad Prism using a 4-parameter non-linear regression curve fit.

In assay [2] the target is FL hMALT1 enzyme (Homo sapiens (Human), UniProt Q9UDY8). Put plainly: MALT1 Protease Assay 2 (Assay 2), higher sensitivity, cleavage of fluorogenic tetrapeptide substrate. The class given is biochemical. To be noted: FL hMALT1 1-10 nM, Ac-LVSR-AMC 100 μM, 0.7 M sodium citrate, 30 min preincubation, 60 min read. The procedure, abridged: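 After 30 min room-temperature preincubation with compound (1% DMSO), enzyme (1-10 nM) cleaved 100 μM Ac-LVSR-AMC in pH 7.0 HEPES buffer containing 0.7 M sodium citrate, CHAPS and TCEP. Fluorescence (ex 360/em 460 nm) signal was taken as 60 min minus time 0. IC50 came from 4-parameter fits of % inhibition.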

For assay [3], the system named is IL-2 release from stimulated Jurkat cells. Put plainly: Human IL-2 Release Phenotypic Assay (Assay 3). In kind it is cell-based. The conditions noted are these: Homo sapiens, Jurkat, 48 h, Jurkat cells (clone E6-1), 200 ng/ml PMA + 300 ng/ml ionomycin, IL-2 in supernatant by ELISA. How it is done: Human IL-2 Release Phenotypic Assay (Assay 3)
This assay measured the inhibition by MALT1 inhibitors of the IL-2 release from stimulated Jurkat cells, a human immortalized T lymphocyte cell line. IL-2 production from Jurkat cells is regulated by activation of NFκB signalling, which is in turn regulated by MALT1 protease activity.
Jurkat cells (clone E6-1, ATCC) were cultured in RPMI1640 supplemented with 10% (v/v) FBS and 1% (v/v) penicillin/streptomycin (100× liquid stocks). Cells were seeded in 96-well white tissue culture-treated plates (Perkin Elmer) at 50 000 cells/well and incubated overnight at 37° C., 5% CO2. Test compounds in DMSO at half-log dilutions were added to the cells and incubated for 30 mins. Final DMSO concentration was 0.5%. Cells were then stimulated with 200 ng/ml PMA+300 ng/ml ionomycin and incubated for 48 hours. IL-2 present in the supernatant was then measured by ELISA according to the kit instructions (ELISA MAX Deluxe Set Human IL-2, BioLegend). % inhibition was calculated for each well, using 30 μM of the commercially available MALT1 inhibitor, MLT-748, for 100% inhibition controls and no compound for 0% inhibition controls. IC50 values were calculated using GraphPad Prism using 4-parameter non-linear regression curve fit.

SMILES strings stand for the structures.

Sequence of FL hMALT1 enzyme (Q9UDY8 whole entry): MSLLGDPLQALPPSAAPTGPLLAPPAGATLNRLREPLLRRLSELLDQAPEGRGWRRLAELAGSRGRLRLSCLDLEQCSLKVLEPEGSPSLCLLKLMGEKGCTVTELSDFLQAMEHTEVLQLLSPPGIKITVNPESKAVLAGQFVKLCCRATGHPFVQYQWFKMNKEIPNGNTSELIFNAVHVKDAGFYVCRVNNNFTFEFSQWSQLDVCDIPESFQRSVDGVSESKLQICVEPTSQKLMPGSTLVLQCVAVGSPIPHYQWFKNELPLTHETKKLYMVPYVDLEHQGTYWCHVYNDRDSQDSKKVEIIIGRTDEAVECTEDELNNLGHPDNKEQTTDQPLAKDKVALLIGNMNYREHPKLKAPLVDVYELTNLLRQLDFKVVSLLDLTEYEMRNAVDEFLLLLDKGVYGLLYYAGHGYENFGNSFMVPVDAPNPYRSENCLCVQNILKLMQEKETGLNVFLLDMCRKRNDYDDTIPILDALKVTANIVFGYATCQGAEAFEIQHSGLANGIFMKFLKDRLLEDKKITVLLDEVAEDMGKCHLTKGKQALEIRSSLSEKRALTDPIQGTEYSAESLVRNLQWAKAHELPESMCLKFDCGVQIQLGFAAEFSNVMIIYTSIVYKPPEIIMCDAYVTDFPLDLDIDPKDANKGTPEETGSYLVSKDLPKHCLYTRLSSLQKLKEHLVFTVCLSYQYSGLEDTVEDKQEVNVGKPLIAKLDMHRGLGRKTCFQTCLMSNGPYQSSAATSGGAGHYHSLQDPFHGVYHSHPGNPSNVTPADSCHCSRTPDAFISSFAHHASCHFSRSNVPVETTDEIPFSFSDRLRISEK
Sequence of MALT1-GS-Ub (6-His-hMALT-1 residues 339-715 fused to ubiquitin) (Q9UDY8 other isoform, or with tags, fused parts or gaps): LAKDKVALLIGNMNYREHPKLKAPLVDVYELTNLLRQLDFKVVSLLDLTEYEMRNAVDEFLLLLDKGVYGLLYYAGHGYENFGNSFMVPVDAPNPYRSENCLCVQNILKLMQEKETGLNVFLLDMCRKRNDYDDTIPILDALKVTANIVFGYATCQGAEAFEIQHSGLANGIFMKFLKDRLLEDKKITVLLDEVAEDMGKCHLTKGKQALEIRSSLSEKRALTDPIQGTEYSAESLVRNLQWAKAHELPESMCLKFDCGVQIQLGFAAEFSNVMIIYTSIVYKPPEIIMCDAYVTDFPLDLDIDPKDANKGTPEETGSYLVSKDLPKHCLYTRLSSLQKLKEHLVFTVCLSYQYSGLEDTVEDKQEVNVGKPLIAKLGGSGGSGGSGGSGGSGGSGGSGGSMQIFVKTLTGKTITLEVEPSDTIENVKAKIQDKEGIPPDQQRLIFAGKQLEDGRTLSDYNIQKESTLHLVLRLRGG

Regarding `O=C(Nc1cnc(-n2nccn2)c(Cl)c1)N1CC(C(F)(F)F)Oc2c(Br)cncc21` (single isomer, unassigned) [Example 40, 8-Bromo-N-(5-chloro-6-(2H-1,2,3-triazol-2-yl)pyridin-3-yl)-2-(trifluoromethyl)-2,3-dihydro-4H-pyrido[4,3-b][1,4]oxazine-4-carboxamide], the IC50 in assay [1] turned out to be 340 nM; in assay [2] it was 60 nM; in assay [3], 300 nM.

As for `N#Cc1cncc2c1OC(C(F)(F)F)CN2C(=O)Nc1cnc(-n2nccn2)c(Cl)c1` (single isomer, unassigned) [Example 55, N-(5-Chloro-6-(2H-1,2,3-triazol-2-yl)pyridin-3-yl)-8-cyano-2-(trifluoromethyl)-2,3-dihydro-4H-pyrido[4,3-b][1,4]oxazine-4-carboxamide], the values for the IC50 in assay [2] and in assay [3] were 60 nM and 350 nM, respectively.

Turning to `Cc1ncc2c(c1C#N)OC(C(F)(F)F)CN2C(=O)Nc1cnc(OC(F)F)c(Cl)c1` (single isomer, unassigned) [Example 61, N-(5-Chloro-6-(difluoromethoxy)pyridin-3-yl)-8-cyano-7-methyl-2-(trifluoromethyl)-2,3-dihydro-4H-pyrido[4,3-b][1,4]oxazine-4-carboxamide], the values for the IC50 in assay [2] and in assay [3] were 21 nM and 286 nM, respectively.

With `N#CC1CN(C(=O)Nc2cnc(-n3nccn3)c(C(F)(F)F)c2)c2cccc(Br)c2O1` (stereo not drawn) [Example 6, N-(6-(2H-1,2,3-Triazol-2-yl)-5-(trifluoromethyl)pyridin-3-yl)-8-bromo-2-cyano-2,3-dihydro-4H-benzo[b][1,4]oxazine-4-carboxamide], the IC50 in assay [1] was 700 nM; in assay [2], 100 nM; in assay [3] it was 2100 nM.

In the case of `CC1(C#N)CN(C(=O)Nc2cnc(-n3nccn3)c(Cl)c2)c2cccc(Br)c2O1` (stereo not drawn) [Example 18, 8-Bromo-N-(5-chloro-6-(2H-1,2,3-triazol-2-yl)pyridin-3-yl)-2-cyano-2-methyl-2,3-dihydro-4H-benzo[b][1,4]oxazine-4-carboxamide], the IC50 in assay [1] was determined as 850 nM; in assay [2], 190 nM; in assay [3] it was 1900 nM.

On to `CC1(C)CN(C(=O)Nc2cnc(-n3nccn3)c(Cl)c2)c2cncc(Br)c2O1` [Example 19, 8-Bromo-N-(5-chloro-6-(2H-1,2,3-triazol-2-yl)pyridin-3-yl)-2,2-dimethyl-2,3-dihydro-4H-pyrido[4,3-b][1,4]oxazine-4-carboxamide], for which the figures for the IC50 in assay [1], in assay [2] and in assay [3] were 730 nM, 150 nM and 1100 nM, respectively.

As to `O=C(Nc1cnc(-n2nccn2)c(Cl)c1)N1CCOc2c(Br)cncc21` [Example 21, 8-Bromo-N-(5-chloro-6-(2H-1,2,3-triazol-2-yl)pyridin-3-yl)-2,3-dihydro-4H-pyrido[4,3-b][1,4]oxazine-4-carboxamide], the IC50 in assay [1] was 2300 nM; in assay [2], more than 3000 nM; in assay [3], more than 10000 nM.

As to `CC1(C)CN(C(=O)Nc2cnc(-n3nccn3)c(C(F)(F)F)c2)c2cccc(Br)c2O1` [Example 23, N-(6-(2H-1,2,3-Triazol-2-yl)-5-(trifluoromethyl)pyridin-3-yl)-8-bromo-2,2-dimethyl-2,3-dihydro-4H-benzo[b][1,4]oxazine-4-carboxamide], the concentration for half-maximal inhibition (IC50) in assay [1] was 860 nM; in assay [2], 110 nM; in assay [3], 290 nM.

Consider `C[C@@H]1CN(C(=O)Nc2cnc(-n3nccn3)c(Cl)c2)c2cncc(Br)c2N1C` [Example 26, (R)-8-Bromo-N-(5-chloro-6-(2H-1,2,3-triazol-2-yl)pyridin-3-yl)-1.2-dimethyl-2,3-dihydropyrido[3,4-b]pyrazine-4 (1H)-carboxamide], for which the IC50 was found to be 800 nM in assay [1], 110 nM in assay [2] and 1300 nM in assay [3].

In the case of `CC1CN(C(=O)Nc2cnc(-n3nccn3)c(Cl)c2)c2cncc(Br)c2O1` (stereo not drawn) [Example 30, 8-Bromo-N-(5-chloro-6-(2H-1,2,3-triazol-2-yl)pyridin-3-yl)-2-methyl-2,3-dihydro-4H-pyrido[4,3-b][1,4]oxazine-4-carboxamide], the IC50 in assay [1] was 1500 nM; in assay [2], 1500 nM; in assay [3], 420 nM.

Regarding `CC1(C)CN(C(=O)Nc2cnc(-n3nccn3)c(Cl)c2)c2cncc(Cl)c2O1` [Example 32, 8-Chloro-N-(5-chloro-6-(2H-1,2,3-triazol-2-yl)pyridin-3-yl)-2,2-dimethyl-2,3-dihydro-4H-pyrido[4,3-b][1,4]oxazine-4-carboxamide], the IC50 was 1800 nM in assay [1], 120 nM in assay [2] and 1200 nM in assay [3].

Consider `CC[C@@H]1CN(C(=O)Nc2cnc(-n3nccn3)c(Cl)c2)c2cncc(Br)c2N1C` [Example 34, (R)-8-Bromo-N-(5-chloro-6-(2H-1,2,3-triazol-2-yl)pyridin-3-yl)-2-ethyl-1-methyl-2,3-dihydropyrido[3,4-b]pyrazine-4 (1H)-carboxamide], for which the IC50 in assay [1] was 970 nM; in assay [2], 50 nM; in assay [3], 290 nM.

Turning to `CC(C)[C@@H]1CN(C(=O)Nc2cnc(-n3nccn3)c(Cl)c2)c2cncc(Br)c2N1C` [Example 35, (R)-8-Bromo-N-(5-chloro-6-(2H-1,2,3-triazol-2-yl)pyridin-3-yl)-2-isopropyl-1-methyl-2,3-dihydropyrido[3,4-b]pyrazine-4 (1H)-carboxamide], the IC50 in assay [1] worked out at 730 nM; in assay [2], 60 nM; in assay [3], 170 nM.

Regarding `Nc1ncc2c(c1Br)OCCN2C(=O)Nc1cnc(-n2nccn2)c(Cl)c1` [Example 36, 7-Amino-8-bromo-N-(5-chloro-6-(2H-1,2,3-triazol-2-yl)pyridin-3-yl)-2,3-dihydro-4H-pyrido[4.3-b][1.4]oxazine-4-carboxamide], the IC50 in assay [2] amounted to 2200 nM; in assay [3], 1700 nM.

In the case of `Cc1ncc2c(c1Br)OCCN2C(=O)Nc1cnc(-n2nccn2)c(Cl)c1` [Example 41, 8-Bromo-N-(5-chloro-6-(2H-1,2,3-triazol-2-yl)pyridin-3-yl)-7-methyl-2,3-dihydro-4H-pyrido[4,3-b][1,4]oxazine-4-carboxamide], the IC50 in assay [1] is 3900 nM; in assay [2], 1400 nM; in assay [3], more than 10000 nM.

The values are drawn from patent publication US20250136577A1, “HETEROCYCLIC DERIVATIVES AS MALT1 INHIBITORS” (C4X Discovery Limited, priority 2022, published 2025).
